According to ChEMBL document CHEMBL5303765, “Data for DCP probe BAY-7081” (2023):

Tests used:
[1] = target: Estrogen receptor (Homo sapiens) (UniProt P03372); test: Estrogen Eralpha Eurofins Panlabs panel; settings: Compound concentration 10.0 uM
[2] = target: Sodium-dependent serotonin transporter (Homo sapiens) (UniProt P31645); test: Transporter, Serotonin (5-Hydroxytryptamine) (SERT) Eurofins Panlabs panel; settings: Compound concentration 10.0 uM
[3] = target: Adenosine receptor A2a (Homo sapiens) (UniProt P29274); test: Adenosine A2A Eurofins Panlabs panel; settings: Compound concentration 10.0 uM
[4] = target: T1, GABA-A receptor; anion channel (Rattus norvegicus) (UniProt O09028+P15431+P18506+P18508+P19969+P20236+P23574+P23576+P28471+P28473+P30191+P62813+P63079+P63138+Q91ZM7+Q9ES14); test: GABAA, Muscimol, Central Eurofins Panlabs panel; assay type: protein-complex assay; settings: Compound concentration 10.0 uM
[5] = target: Monoamine oxidase B (MAO-B) (Homo sapiens, UniProt P27338); test: Monoamine Oxidase MAO-B Eurofins Panlabs panel; settings: compound concentration 10 uM
[6] = target: Angiotensin-converting enzyme (Oryctolagus cuniculus) (UniProt P12822); test: Peptidase, Angiotensin Converting Enzyme Eurofins Panlabs panel; settings: Compound concentration 10.0 uM
Sequence of Angiotensin-converting enzyme (Oryctolagus cuniculus) (P12822 whole entry): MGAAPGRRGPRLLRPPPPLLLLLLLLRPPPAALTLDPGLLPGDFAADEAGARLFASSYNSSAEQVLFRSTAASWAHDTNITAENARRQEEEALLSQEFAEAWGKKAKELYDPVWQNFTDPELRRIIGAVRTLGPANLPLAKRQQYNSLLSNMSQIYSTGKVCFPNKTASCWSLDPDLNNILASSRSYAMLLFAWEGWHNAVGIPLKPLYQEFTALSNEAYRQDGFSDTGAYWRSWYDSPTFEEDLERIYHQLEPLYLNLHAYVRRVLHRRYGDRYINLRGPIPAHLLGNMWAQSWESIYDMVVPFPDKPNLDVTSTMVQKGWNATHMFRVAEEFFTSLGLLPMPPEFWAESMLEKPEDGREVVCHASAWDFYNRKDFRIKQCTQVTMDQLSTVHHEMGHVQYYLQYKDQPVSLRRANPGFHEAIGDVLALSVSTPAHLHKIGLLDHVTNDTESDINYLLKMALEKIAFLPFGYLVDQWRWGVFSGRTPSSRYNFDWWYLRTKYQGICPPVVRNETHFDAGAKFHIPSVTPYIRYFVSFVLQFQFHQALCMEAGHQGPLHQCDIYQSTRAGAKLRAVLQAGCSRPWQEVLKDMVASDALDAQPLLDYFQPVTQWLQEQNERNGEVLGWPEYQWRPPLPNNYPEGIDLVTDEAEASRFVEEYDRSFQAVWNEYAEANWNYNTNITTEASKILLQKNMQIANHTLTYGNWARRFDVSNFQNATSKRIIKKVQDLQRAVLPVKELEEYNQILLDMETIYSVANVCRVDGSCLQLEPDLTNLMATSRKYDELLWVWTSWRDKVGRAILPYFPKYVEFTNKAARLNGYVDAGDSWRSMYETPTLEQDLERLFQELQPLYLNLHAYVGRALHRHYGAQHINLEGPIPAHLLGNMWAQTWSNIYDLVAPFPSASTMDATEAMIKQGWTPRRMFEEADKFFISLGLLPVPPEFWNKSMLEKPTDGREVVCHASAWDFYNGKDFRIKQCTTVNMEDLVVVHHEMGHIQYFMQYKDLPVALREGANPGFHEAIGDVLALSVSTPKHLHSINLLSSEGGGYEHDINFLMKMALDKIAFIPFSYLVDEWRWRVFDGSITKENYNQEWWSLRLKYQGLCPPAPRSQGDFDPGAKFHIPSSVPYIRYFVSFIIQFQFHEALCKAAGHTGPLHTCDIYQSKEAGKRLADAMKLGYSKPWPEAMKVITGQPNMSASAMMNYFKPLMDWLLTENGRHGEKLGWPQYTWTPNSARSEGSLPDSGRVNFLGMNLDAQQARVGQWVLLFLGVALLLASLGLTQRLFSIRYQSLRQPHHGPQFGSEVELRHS

[7] = target: Epidermal growth factor receptor (Homo sapiens) (UniProt P00533); test: Protein Tyrosine Kinase, EGF Receptor Eurofins Panlabs panel; settings: Compound concentration 10.0 uM
[8] = target: 3',5'-cyclic-AMP phosphodiesterase 4B (Homo sapiens, UniProt Q07343); test: 3H-cAMP and 3H-cGMP Scintillation Proximity Assay (PDE4B)
Sequence of 3',5'-cyclic-AMP phosphodiesterase 4B (Q07343 whole entry): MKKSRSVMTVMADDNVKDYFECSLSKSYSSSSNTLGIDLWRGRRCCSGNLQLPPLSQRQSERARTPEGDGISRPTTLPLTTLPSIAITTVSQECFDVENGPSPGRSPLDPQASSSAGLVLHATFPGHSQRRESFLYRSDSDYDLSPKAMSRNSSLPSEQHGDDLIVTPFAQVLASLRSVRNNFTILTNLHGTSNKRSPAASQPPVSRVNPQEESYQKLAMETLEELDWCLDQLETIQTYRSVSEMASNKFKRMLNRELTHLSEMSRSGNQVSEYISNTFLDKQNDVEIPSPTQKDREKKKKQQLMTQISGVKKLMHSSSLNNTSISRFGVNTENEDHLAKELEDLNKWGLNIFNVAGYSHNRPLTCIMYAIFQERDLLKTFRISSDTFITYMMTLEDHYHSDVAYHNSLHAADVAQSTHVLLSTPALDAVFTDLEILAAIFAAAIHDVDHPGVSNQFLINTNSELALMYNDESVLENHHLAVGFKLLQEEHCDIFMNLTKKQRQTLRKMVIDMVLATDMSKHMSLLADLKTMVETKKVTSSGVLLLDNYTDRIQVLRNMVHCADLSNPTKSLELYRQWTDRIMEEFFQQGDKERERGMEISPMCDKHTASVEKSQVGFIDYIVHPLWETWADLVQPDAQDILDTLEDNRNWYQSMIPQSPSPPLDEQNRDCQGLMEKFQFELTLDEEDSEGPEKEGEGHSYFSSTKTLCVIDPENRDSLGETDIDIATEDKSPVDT

[9] = target: Sigma non-opioid intracellular receptor 1 (Homo sapiens) (UniProt Q99720); test: Sigma1 Eurofins Panlabs panel; settings: Compound concentration 10.0 uM
Sequence of Sigma non-opioid intracellular receptor 1 (Homo sapiens) (Q99720 whole entry): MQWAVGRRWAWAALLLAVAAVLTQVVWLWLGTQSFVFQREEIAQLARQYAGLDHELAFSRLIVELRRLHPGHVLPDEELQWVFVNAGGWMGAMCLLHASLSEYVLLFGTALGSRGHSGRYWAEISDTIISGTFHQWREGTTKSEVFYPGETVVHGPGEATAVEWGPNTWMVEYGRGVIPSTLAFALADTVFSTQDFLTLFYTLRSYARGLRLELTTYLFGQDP

[10] = target: Prostaglandin G/H synthase 1 (Homo sapiens) (UniProt P23219); test: Cyclooxygenase COX-1 Eurofins Panlabs panel; settings: Compound concentration 10.0 uM
[11] = target: L-type calcium channel, benzothiazepine site (Rattus norvegicus, UniProt P22002+P27732+Q02485); test: Calcium Channel L-Type, Benzothiazepine Eurofins Panlabs panel; assay type: protein assay; settings: compound concentration 10 uM
[12] = target: Glutamate NMDA receptor (Rattus norvegicus) (UniProt P35439+Q00959+Q00960+Q00961+Q62645+Q8VHN2+Q9R1M7); test: Glutamate, NMDA, Agonism Eurofins Panlabs panel; assay type: protein-complex assay; settings: Compound concentration 10.0 uM
[13] = target: L-type calcium channel, dihydropyridine site (Rattus norvegicus, UniProt P22002+P27732+Q02485); test: Calcium Channel L-Type, Dihydropyridine Eurofins Panlabs panel; assay type: protein assay; settings: compound concentration 10 uM
[14] = target: T1, GABA-A receptor; anion channel (Rattus norvegicus); test: GABAA, Flunitrazepam, Central Eurofins Panlabs panel; assay type: protein-complex assay; settings: Compound concentration 10.0 uM
[15] = target: Delta-type opioid receptor (Homo sapiens) (UniProt P41143); test: Opiate delta1 (OP1, DOP) Eurofins Panlabs panel; settings: Compound concentration 10.0 uM
Phosphodiesterase PDE1 = Phosphodiesterase PDE1 (Bos taurus, UniProt Q01061+P14100+A0A3Q1MCV4); test: 3H-cAMP and 3H-cGMP Scintillation Proximity Assay (PDE1); assay type: tissue-based, brain
[16] = target: Cannabinoid receptor 2 (Homo sapiens) (UniProt P34972); test: Cannabinoid CB2 Eurofins Panlabs panel; settings: Compound concentration 10.0 uM
[17] = target: T2, cGMP-specific 3',5'-cyclic phosphodiesterase (Homo sapiens, UniProt O76074); test: 3H-cAMP and 3H-cGMP Scintillation Proximity Assay (PDE5A)
[18] = target: T3, Muscarinic acetylcholine receptor M1 (Homo sapiens) (UniProt P11229); test: Muscarinic M1 Eurofins Panlabs panel; settings: Compound concentration 10.0 uM
T3 sequence (whole entry): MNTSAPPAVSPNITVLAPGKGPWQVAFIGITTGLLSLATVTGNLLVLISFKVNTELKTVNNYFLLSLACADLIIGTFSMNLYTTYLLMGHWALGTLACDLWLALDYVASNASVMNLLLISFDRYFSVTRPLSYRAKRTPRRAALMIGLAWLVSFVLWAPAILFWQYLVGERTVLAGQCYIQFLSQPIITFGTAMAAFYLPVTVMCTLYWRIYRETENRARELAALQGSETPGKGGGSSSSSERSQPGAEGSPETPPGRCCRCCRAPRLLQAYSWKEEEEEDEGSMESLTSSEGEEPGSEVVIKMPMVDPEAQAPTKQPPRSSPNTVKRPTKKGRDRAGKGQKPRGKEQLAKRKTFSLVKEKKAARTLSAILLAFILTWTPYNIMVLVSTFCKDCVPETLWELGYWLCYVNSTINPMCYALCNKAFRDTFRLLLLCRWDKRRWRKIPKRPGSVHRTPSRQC

[19] = target: cGMP-dependent 3',5'-cyclic phosphodiesterase (Homo sapiens, UniProt O00408); test: 3H-cAMP and 3H-cGMP Scintillation Proximity Assay (PDE2A)
[20] = target: T4, Alpha-2B adrenergic receptor (Homo sapiens) (UniProt P18089); test: Adrenergic alpha2B Eurofins Panlabs panel; settings: Compound concentration 10.0 uM
T4 sequence (whole entry): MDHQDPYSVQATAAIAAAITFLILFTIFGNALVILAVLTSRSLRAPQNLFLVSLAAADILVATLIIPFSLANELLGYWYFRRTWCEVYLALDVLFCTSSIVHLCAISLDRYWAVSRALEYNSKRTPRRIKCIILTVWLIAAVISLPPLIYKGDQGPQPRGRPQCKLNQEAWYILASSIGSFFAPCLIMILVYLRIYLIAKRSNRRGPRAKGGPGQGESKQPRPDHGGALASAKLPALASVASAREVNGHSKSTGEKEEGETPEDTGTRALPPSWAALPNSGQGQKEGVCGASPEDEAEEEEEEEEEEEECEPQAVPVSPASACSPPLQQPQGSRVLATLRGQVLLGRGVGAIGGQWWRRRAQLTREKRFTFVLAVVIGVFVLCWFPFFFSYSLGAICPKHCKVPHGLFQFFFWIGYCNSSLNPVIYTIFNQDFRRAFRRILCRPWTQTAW

[21] = target: Motilin receptor (Homo sapiens) (UniProt O43193); test: Motilin Eurofins Panlabs panel; settings: concentration not given here
[22] = target: Adenosine receptor A3 (Homo sapiens) (UniProt P0DMS8); test: Adenosine A3 Eurofins Panlabs panel; settings: Compound concentration 10.0 uM
Sequence of Adenosine receptor A3 (Homo sapiens) (P0DMS8 whole entry): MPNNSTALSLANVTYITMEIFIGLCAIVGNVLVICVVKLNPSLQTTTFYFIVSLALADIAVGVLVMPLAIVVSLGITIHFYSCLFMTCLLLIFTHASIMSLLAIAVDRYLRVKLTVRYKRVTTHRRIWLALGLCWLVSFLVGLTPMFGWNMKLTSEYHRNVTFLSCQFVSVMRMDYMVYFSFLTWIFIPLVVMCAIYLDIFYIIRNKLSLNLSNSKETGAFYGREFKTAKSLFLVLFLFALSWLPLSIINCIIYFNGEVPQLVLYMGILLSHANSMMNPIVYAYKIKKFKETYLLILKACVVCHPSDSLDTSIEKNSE

[23] = target: Cannabinoid receptor 1 (Homo sapiens) (UniProt P21554); test: Cannabinoid CB1 Eurofins Panlabs panel; settings: Compound concentration 10.0 uM
Sequence of Cannabinoid receptor 1 (Homo sapiens) (P21554 whole entry): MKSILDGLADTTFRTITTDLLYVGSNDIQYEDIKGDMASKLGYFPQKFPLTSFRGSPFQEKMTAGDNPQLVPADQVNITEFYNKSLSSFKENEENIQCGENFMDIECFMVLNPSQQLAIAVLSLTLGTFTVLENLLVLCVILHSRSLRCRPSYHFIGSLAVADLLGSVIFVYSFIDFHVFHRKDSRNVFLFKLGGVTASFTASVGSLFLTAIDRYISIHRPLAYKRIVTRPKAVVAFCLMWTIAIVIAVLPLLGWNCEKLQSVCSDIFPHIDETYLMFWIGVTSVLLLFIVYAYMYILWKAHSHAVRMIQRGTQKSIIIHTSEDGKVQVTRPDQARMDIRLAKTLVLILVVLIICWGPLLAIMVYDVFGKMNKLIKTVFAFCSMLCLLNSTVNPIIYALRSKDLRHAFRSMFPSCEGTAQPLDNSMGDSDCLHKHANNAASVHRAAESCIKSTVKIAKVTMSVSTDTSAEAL

[24] = target: Alpha-1A adrenergic receptor (Rattus norvegicus) (UniProt P43140); test: Adrenergic alpha1A Eurofins Panlabs panel; settings: Compound concentration 10.0 uM
Sequence of Alpha-1A adrenergic receptor (Rattus norvegicus) (P43140 whole entry): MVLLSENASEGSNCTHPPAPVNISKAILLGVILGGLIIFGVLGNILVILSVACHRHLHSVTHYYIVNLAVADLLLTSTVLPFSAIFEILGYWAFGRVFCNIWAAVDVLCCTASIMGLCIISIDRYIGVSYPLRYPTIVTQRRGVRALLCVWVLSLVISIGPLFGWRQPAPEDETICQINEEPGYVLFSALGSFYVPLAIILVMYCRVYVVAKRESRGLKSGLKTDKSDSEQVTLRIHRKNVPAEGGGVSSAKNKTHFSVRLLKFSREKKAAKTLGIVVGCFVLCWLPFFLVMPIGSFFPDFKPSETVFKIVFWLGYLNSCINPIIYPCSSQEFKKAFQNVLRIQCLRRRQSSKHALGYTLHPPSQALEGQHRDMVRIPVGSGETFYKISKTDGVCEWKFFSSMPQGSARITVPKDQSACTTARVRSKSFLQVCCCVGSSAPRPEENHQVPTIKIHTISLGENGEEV

[25] = target: 5-hydroxytryptamine receptor 2A (Homo sapiens) (UniProt P28223); test: Serotonin (5-Hydroxytryptamine) 5-HT2A Eurofins Panlabs panel; settings: Compound concentration 10.0 uM
Sequence of 5-hydroxytryptamine receptor 2A (Homo sapiens) (P28223 whole entry): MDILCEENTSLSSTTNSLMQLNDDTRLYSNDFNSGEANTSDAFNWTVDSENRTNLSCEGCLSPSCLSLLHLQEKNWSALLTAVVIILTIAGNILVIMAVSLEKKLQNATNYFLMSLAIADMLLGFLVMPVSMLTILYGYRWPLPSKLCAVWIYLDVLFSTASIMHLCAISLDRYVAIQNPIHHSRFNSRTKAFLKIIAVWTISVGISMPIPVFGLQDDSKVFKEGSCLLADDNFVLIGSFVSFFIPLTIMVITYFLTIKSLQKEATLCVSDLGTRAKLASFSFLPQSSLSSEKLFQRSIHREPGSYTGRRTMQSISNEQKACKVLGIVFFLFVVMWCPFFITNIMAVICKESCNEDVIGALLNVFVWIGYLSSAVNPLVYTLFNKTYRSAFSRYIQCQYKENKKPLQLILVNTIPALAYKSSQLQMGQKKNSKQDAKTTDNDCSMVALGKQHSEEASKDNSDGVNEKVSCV

[26] = target: Dual 3',5'-cyclic-AMP and -GMP phosphodiesterase 11A (Homo sapiens, UniProt Q9HCR9); test: Panlabs assay PDE11A4; parameters: compound concentration 10 uM; settings: at 10 µM
[27] = target: High affinity cAMP-specific and IBMX-insensitive 3',5'-cyclic phosphodiesterase 8A (Homo sapiens, UniProt O60658); test: Panlabs assay PDE8A1; parameters: compound concentration 10 uM; settings: at 10 µM
Mu-type opioid receptor = Mu-type opioid receptor (Homo sapiens, UniProt P35372); test: GPCRScan assay: inhibition of MOR; parameters: radioligand conc. used [nm] 1.0 – 2.0, parental cells stable HEK
Sequence of Mu-type opioid receptor (P35372 whole entry): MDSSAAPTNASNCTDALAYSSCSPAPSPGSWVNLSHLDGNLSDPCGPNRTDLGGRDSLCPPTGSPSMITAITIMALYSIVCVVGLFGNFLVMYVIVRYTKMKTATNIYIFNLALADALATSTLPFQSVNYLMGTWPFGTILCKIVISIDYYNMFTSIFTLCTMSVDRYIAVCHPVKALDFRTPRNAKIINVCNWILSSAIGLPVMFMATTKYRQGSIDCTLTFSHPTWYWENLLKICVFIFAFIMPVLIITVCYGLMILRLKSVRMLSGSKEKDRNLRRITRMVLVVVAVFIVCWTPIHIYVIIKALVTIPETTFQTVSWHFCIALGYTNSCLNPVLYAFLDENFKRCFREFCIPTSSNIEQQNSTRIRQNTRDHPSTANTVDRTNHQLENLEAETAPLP

[28] = target: Phosphodiesterase 6 (Bos taurus) (UniProt P23439+P16586+P11541+P22571+P04972+Q95142); test: Panlabs assay PDE6; assay type: tissue-based; parameters: compound concentration 10 uM; settings: retina, at 10 µM
[29] = target: T2, cGMP-specific 3',5'-cyclic phosphodiesterase; test: Panlabs assay PDE5A; parameters: compound concentration 10 uM; settings: at 10 µM

Sequence of Sodium-dependent serotonin transporter (Homo sapiens) (P31645 whole entry, looked up): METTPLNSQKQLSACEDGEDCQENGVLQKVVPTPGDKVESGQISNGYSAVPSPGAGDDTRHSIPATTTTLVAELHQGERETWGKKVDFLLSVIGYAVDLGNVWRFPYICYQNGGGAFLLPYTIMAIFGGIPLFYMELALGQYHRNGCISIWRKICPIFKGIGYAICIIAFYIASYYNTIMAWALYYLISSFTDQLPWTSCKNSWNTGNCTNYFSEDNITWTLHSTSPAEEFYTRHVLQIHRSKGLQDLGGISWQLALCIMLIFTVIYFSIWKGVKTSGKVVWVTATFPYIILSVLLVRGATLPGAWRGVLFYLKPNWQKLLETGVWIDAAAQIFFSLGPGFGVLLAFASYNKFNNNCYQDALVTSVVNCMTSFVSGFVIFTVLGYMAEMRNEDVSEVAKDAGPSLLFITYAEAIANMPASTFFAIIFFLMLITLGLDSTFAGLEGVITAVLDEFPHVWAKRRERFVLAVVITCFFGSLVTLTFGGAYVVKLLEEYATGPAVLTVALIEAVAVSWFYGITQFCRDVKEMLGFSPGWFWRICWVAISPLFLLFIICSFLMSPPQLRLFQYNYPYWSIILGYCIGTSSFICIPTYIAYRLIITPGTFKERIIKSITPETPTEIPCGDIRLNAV

Which results are given for CCC[C@H]1CNCc2c1[nH]c(=O)c(C#N)c2N1CCC2(CC1)CC2?
inhibition [1]: 8%; inhibition [2]: 3.5%; inhibition [3]: 2%; inhibition [4]: 25%; inhibition at 10 µM [5]: 2%; inhibition [6]: 4%; inhibition [7]: 9%; IC50 [8]: 3.96 µM (not active); inhibition [9]: -4%; inhibition [10]: 1%; inhibition at 10 µM [11]: 18.5%; inhibition [12]: 6%; inhibition at 10 µM [13]: 29%; inhibition [14]: 16.5%; inhibition [15]: 5%; IC50 (Phosphodiesterase PDE1): 0.753 µM; inhibition [16]: -1%; IC50 [17]: 2.98 µM (not active); inhibition [18]: -4%; IC50 [19]: > 10 µM (not active); inhibition [20]: 7%; inhibition [21]: 0%; inhibition [22]: 12.5%; inhibition [23]: 31.2%; inhibition [24]: 2%; inhibition [25]: 2%

Which results are given for CCC[C@@H]1CNCc2c1[nH]c(=O)c(C#N)c2N1CCC2(CC1)CC2?
inhibition [26]: 1.3%; inhibition [27]: 2.9%; Ki (Mu-type opioid receptor; read-out: Ki): 4.71 µM; Ki (Mu-type opioid receptor; read-out: pKi (converted)): 4.68 µM; inhibition [28]: 16.7%; inhibition [29]: 12.2%
